How the values were obtained:
[1] = tested on: Collagen I and Fibronectin; experiment: Immuno-ECM: TGFβ-stimulated accumulation of collagen I and fibronectin; assay type: cell-based, human; conditions: IPF patient-derived fibroblasts, TGFβ 48 hours then DHX 24 hours
Description: Immuno-ECM: Adapting from previously published methods, IPF patient-derived fibroblasts were plated to confluence in clear-bottom 96-well plates. After cells attached, the medium was swapped for EMEM containing 0.1% FBS+2 ng/mL TGF-β. After 48 hours the indicated concentration of DHX or DMSO control was added to each well and incubated for 24 hours. WST-1 viability reagent was added to each well (Sigma-Aldrich) and measured on a Flexstation 3 (Molecular Devices) plate reader. Cells were then fixed in 3.7% formalin (Sigma-Aldrich), and permeabilized in 0.25% Triton X-100 (Sigma-Aldrich). Wells were washed with tris-buffered saline (TBS) and blocked with Li-Cor Odyssey Blocking Buffer for 60 minutes before overnight incubation in a polyclonal rabbit antibody for fibronectin (Sigma sc-9068) or collagen I (Novus NB600-408) diluted 1:200 in blocking buffer. Wells were washed with TBS-Tween before 45 minute incubation with IR-dye-conjugated secondary antibody (Li-Cor #926-32211) diluted 1:400. Plates were imaged via a Li-Cor OdysseyXL system with quantification performed via densitometry. Data are expressed as IR intensity relative to WST-1 signal absorbance in order to account for any potential compound toxicity.

[2] = tested on: bleomycin-induced pulmonary fibrosis; experiment: Bleomycin Mouse Study, dihydrexidine treatment; assay type: in vivo
Description: Bleomycin Mouse Study: In the initial in vivo siRNA study (FIG. 5), adult male age-matched C57BL/6N mice at 6-8 weeks of age were purchased from the National Cancer Institute (NCI)-Frederick Mouse Repository (Frederick, MD, USA). All experiments were performed in accordance with National Institute of Health guidelines and protocols approved by the Massachusetts General Hospital Subcommittee on Research Animal Care, and maintained all mice in a specific pathogen-free (SPF) environment certified by the American Association for Accreditation of Laboratory Animal Care (AAALAC). 6-8 weeks old mice were anesthetized with ketamine and xylazine before exposure of the trachea. Lung fibrosis was induced by intratracheal injection of bleomycin (50 μl at 1.2 U/kg) or phosphate buffered saline (PBS; as control) on day 0. After 14 days Small interfering RNA (siRNA) duplexes targeting mouse Yap (L-046247-01-0005) or Taz (L-058248-01-0005) mRNA (Dharmacon) or nontargeting control siRNA were administered in vivo by intratracheal instillation at a single dose of 25 μg (each siRNA) per mouse. On day 21 Mice were sacrificed and lungs harvested for collagen determination and biochemical analyses. To obtain BAL samples for total protein concentration determination, lungs were lavaged with six 0.5-ml aliquots of PBS. BAL samples were centrifuged at 3,000 g for 20 min at 4° C. and transferred the supernatants to siliconized low-binding Eppendorf tubes (PGC Scientifics) for subsequent analysis. Total protein concentration of the BAL fluid was determined by BCA Protein Assay Kit (Pierce). In the dihydrexidine treatment studies (FIG. 4), 8 week old female C57/BL6 mice were purchased from Charles River Laboratories. Mouse lung fibrosis was induced with bleomycin (BLEO; Fresenius Kabi) delivered intratracheally (3 U/kg) to the lungs using MicroSprayer® Aerosolizer (Penn-Century). The Sham mice received sterile 0.9% saline instead using identical methods. Mice were weighed every 24 hrs, and both groups were then randomized at day 10 into DHX and Control treatment groups, matching for the degree of weight change. DHX (5 mg/kg) was administered everyday intranasally (i.n.) dissolved in surfactant (infasurf) which has previously shown to aid in spreading to pulmonary aveoli for 14 days. The control groups of mice received the equivalent vehicle dose of surfactant. Following the final DHX treatment, mice were sacrificed and the right lungs were inflated with 4% paraformaldehyde (PFA) and further incubated in 4% PFA for 24 hours prior processing for paraffin embedding. The left lobe of the lung was snap frozen in liquid nitrogen for RNA isolation and hydroxyproline assay. Experimental procedures were approved by the Mayo Clinic Institutional Animal Care and Use Committee and the animals were handled in accordance with their guidelines.
Histological Scoring: Five μm thick sections were cut from Paraffin embedded lung tissues, and the sections were stained either with hematoxylin and eosin (H&E) or with Masson's Trichrome stain kit (Abcam). All H&E-stained slides and trichrome-stained slides were reviewed in a blinded fashion by a thoracic pathologist. The severity of interstitial and peribronchiolar lung immature and mature fibrosis was estimated on a numerical scale according to Ashcroft et al. For scoring purposes, all H&E stained slides were systematically scanned at 100× magnification and successive 100× fields were scored. Scoring was based on the following scale: 0 (no fibrosis), 1 (minimal interstitial and/or peribronchiolar thickening due to fibrosis), 3 (moderate thickening without obvious architectural distortion), 5 (increased fibrosis with formation of fibrous bands and/or small masses), 7 (severe architectural distortion with large areas of fibrosis and areas of honeycomb changes), and 8 (total fibrous obliteration of the field). The predominant score for each field was recorded. The mean of all scores was calculated for each case. […]

pYAP (Ser 127) = experiment: Western blotting of YAP serine 127 phosphorylation, IMR-90 cells; assay type: cell-based, human; conditions: IMR-90, DHX 10 μM, 2 hours
Text: Scale bar represents 100 μm. […] Scale bar represents 100 μm.

[3] = tested on: IMR-90 cells and IPF Patient-Derived Lung fibroblasts; experiment: Proliferation and apoptosis-factor expression of lung fibroblasts; assay type: cell-based, human
Description: IPF fibroblast and Normal lung fibroblast co-culture proliferation. Cell are pre-labelled with fluorescent dyes (red and green) and then co-cultured at a Ratio of 1:1 in 96 well plates. Cell counts are determined every 24 hours and plotted as a ratio of IPF/HLF cells. In the control wells the IPF cells outgrow and take over the well. N=2.
Proliferation of lung fibroblasts (IMR-90 cells and IPF Patient-Derived Lung fibroblasts) measured for 4 days in the presence of GPCR agonists ET-1 (100 nM) and LPA (10 μM) (32A, 32B) or growth factors TGFβ (2 ng/mL) and CTGF (100 ng/mL) (32C, 32D)+/−10M DHX. Cells were fixed and counted with DAPI at the end of each day. N=3 technical triplicates. RNA Expression of pro-apoptotic factor BIM (32E, 32F) and anti-apoptotic factor BCL2 (32G, 32H) was assessed following 24 treatment with DHX (10 μM). N=4.

[4] = bleomycin mice, 5 mg/kg once daily i.n., day 24

Oc1cc2c(cc1O)[C@H]1c3ccccc3CN[C@@H]1CC2 (racemic) [Dihydrexidine, dihydrexidine]
TGFβ-stimulated accumulation of collagen I and fibronectin [1]: dose-dependently reversed | lung remodeling in the absence of fibrosis (body weight, histology, collagen, gene expression) ([2]; Sham DHX mice, identical time course and route): did not differ from those of control mice | weight change ([2]; bleomycin mice, 5 mg/kg once daily i.n. from Day 10): lost significantly less weight | lung histology (Ashcroft, blinded pathologist) [2, 4]: nearly completely protected from lung remodeling | staining for YAP and TAZ in the lungs [2, 4]: attenuated by DHX treatment | total collagen in the lungs (hydroxyproline) [2, 4]: nearly identical to sham treated mice | transcript levels of Acta2, Ctgf, Fn1, Col1a1, Col1a2, Yap and Taz in lung [2, 4]: significantly attenuated | YAP serine 127 phosphorylation (pYAP (Ser 127)): promoted YAP serine 127 phosphorylation | RNA expression of pro-apoptotic BIM and anti-apoptotic BCL2 ([3]; 24 treatment with DHX (10 μM)): primes lung fibroblasts for apoptosis | proliferation of lung fibroblasts ([3]; 4 days, with ET-1, LPA, TGFβ or CTGF +/−10M DHX): blocks proliferation

Reference: patent publication US20240252463A1, “METHODS OF TREATING FIBROTIC PATHOLOGIES” (Mayo Foundation for Medical Education and Research, priority 2018, published 2024)
